Measurements published in patent US12691104B2, “Compositions containing nicotinamide and vitamin B6 and methods of using such compositions for treating sarcopenia and frailty” (SOCIETE DES PRODUITS NESTLE S.A., priority 2020, dated 2026).

System: Human primary myoblasts
Experiment: Myogenic amplification and commitment of muscle stem cells (Pax7/MyoD staining, image quantification)
Format: cell-based
Conditions: donors 1 and 2 pooled, dose response, 96 hours, control DMSO 1%; for proportion of MyoD+ cells, fold change compared to the control condition: FIG. 1B/2B
Method: Human Skeletal Muscle Myoblasts were purchased from Lonza (https://bioscience.lonza.com). These cells were isolated from the upper arm or leg muscle tissue of normal donors and used after the second passage. Several donors were tested to ensure cell viability and purity before selecting the final donors, which are a person (refer thereafter as Donor 1), a person (refer thereafter as Donor 2) and a person (refer thereafter as Donor 3). Human primary myoblasts were seeded in 384 well plates at a density of 1′000 cells per well in skeletal muscle growth medium (SKM-M, AMSbio). For treatment, compounds were directly added to the myoblast cultures 16 hours after initial plating. All cultures were then grown for 96 hours. Cells were stained for Pax7 and MyoD expression using antibodies directed against Pax7 and MyoD and counterstained with Hoechst 33342 to visualize cell nuclei. Pax7+ cells are defined as cells that express Pax7 regardless of MyoD expression. […] Image acquisition was performed using the ImageXpress (Molecular Devices) platform. Custom module analysis based on Multi-Wavelength Cell Scoring of the MetaXpress software was used for quantification. *, **, ***, **** indicates difference from the control, One-way ANOVA, with p<0.05, p<0.01, p<0.001, p<0.0001, respectively. Data are presented as Mean+/— SEM. Human primary myoblasts from different donors (donor 1, donor 2 or donor 3) were seeded in 384 well plates at a density of 1′000 cells per well in skeletal muscle growth medium (SKM-M, AMSbio). For treatment, compounds were directly added to the myoblast cultures 16 hours after initial plating. All cultures were then grown for 96 hours. Cells were stained for Pax7 and MyoD expression using antibodies directed against Pax7 and MyoD and counterstained with Hoechst 33342 to visualize cell nuclei. Pax7+ cells are defined as cells that express Pax7 regardless of MyoD expression. […] Custom module analysis based on Multi-Wavelength Cell Scoring of the MetaXpress software was used for quantification. […]

SMILES	proportion of Pax7+ cells, fold change compared to the control condition (FIG. 1A/2A)	proportion of MyoD+ cells, fold change compared to the control condition
NC(=O)c1cccnc1 [Nicotinamide]	increasing the proportion of both amplifying (Pax7+) and differentiating (MyoD+) cells in a dose dependent manner	increasing the proportion of both amplifying (Pax7+) and differentiating (MyoD+) cells in a dose dependent manner
Cc1ncc(CO)c(CO)c1O [Pyridoxine]	–	increasing the proportion of differentiating (MyoD+) cells in a dose dependent manner
